Experimental data from PubChem BioAssay (NCI).
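Five compound concentrations were applied to cells in 96-well plates for 48 hours; endpoints were derived by simple linear interpolation of the resulting dose-response curve. Abbreviation: GI50, concentration required for 50% inhibition of growth. At the TGI there is no net growth.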

Assays:
Experiment in all cases: NCI anticancer screen, dose series, 48 h
[1] = system: DU-145 prostate
[2] = system: HL-60(TB) leukemia
[3] = system: HOP-92 NSCLC
[4] = system: HS 578T breast
[5] = system: M14 melanoma
[6] = system: MDA-MB-231 breast
[7] = system: NCI-H460 lung
[8] = system: NCI/ADR-RES ovarian
[9] = system: SF-539 CNS
[10] = system: SNB-19 CNS

SMILES | GI50 [1] | TGI [1] | GI50 [2] | TGI [2] | GI50 [3] | TGI [3] | GI50 [4] | TGI [4] | GI50 [5] | TGI [5] | GI50 [6] | TGI [6] | GI50 [7] | TGI [7] | GI50 [8] | TGI [8] | GI50 [9] | TGI [9] | GI50 [10] | TGI [10]
C=CC(=O)N1CCC(c2ccc(C(N)=O)c(-c3ccc(Oc4ccccc4)cc3)n2)CC1 | 31700 nM | > 100000 nM | 19500 nM | 58.8 µM | 10400 nM | 76.6 µM | 37.2 µM | > 100 µM | 34300 nM | > 100000 nM | 39000 nM | > 100 µM | 46200 nM | > 100 µM | 30300 nM | > 100 µM | 40300 nM | > 100 µM | 47900 nM | > 100 µM
CN(C)c1ccc(Nc2c3ccccc3nc3ccccc23)cc1 | 1050 nM | 2940 nM | 840 nM | 3.61 µM | 622 nM | 3.84 µM | 1.65 µM | 9.47 µM | 1220 nM | 2610 nM | 1300 nM | 3.32 µM | 367 nM | 1.72 µM | 1120 nM | 2.93 µM | 1720 nM | 8.33 µM | 1630 nM | 9.32 µM
Cc1ccc2nc3ccccc3c(NCc3ccc(Cl)cc3)c2c1 | 5440 nM | 11500 nM | 5280 nM | 13.5 µM | 1380 nM | 5.79 µM | 7.88 µM | 20.2 µM | 6750 nM | 13600 nM | 5160 nM | 12.2 µM | 4020 nM | 11.1 µM | 4720 nM | 12.4 µM | 5550 nM | 12.1 µM | 6210 nM | 12.7 µM
COC(=O)c1c2c(c(C)[n+]([O-])c1C)C(=O)C=C(NCc1ccccc1)C2=O | 1350 nM | 2680 nM | 317 nM | 1.19 µM | 2170 nM | 4.37 µM | 2.19 µM | 6.88 µM | 550 nM | 1870 nM | 326 nM | 2.68 µM | 872 nM | 2.73 µM | 453 nM | 2.95 µM | 711 nM | 1.94 µM | 1420 nM | 2.74 µM
C[C@H]1[C@H](C)N1CC(O)Cn1ccnc1[N+](=O)[O-] (some centres undefined) | – | > 100000 nM | – | > 100 µM | – | > 100 µM | – | > 100 µM | – | > 100000 nM | – | > 100 µM | – | > 100 µM | – | > 100 µM | – | > 100 µM | – | > 100 µM
COc1ccc([C@H](CC(=O)O)N2CCN(CCCc3ccc4c(n3)NCCC4)C2=O)cn1 | 951 nM | 12500 nM | > 100000 nM | > 100 µM | 34.8 nM | 0.159 µM | 7.15 µM | > 100 µM | > 100000 nM | > 100000 nM | 254 nM | – | 4360 nM | > 100 µM | > 100000 nM | > 100 µM | > 100000 nM | > 100 µM | 426 nM | > 100 µM
CCCCNNC(=O)c1ccc(Br)cc1 | 2600 nM | > 50000 nM | 2240 nM | > 50 µM | 1460 nM | 11.4 µM | 4.27 µM | > 50 µM | 2460 nM | > 50000 nM | 9030 nM | > 50 µM | 2970 nM | > 50 µM | 1030 nM | > 37.8 µM | 1760 nM | > 50 µM | 11200 nM | > 50 µM
CCC(=O)N1C/C(=C/c2ccc(Cl)cc2)C(=O)/C(=C/c2ccc(Cl)cc2)C1 | 1130 nM | 2650 nM | 1250 nM | 5.03 µM | 1660 nM | 4.18 µM | 2.06 µM | 6.05 µM | 992 nM | 2600 nM | 1050 nM | 2.9 µM | 1120 nM | 3.56 µM | 1790 nM | 12.2 µM | 690 nM | 1.91 µM | 1020 nM | 2.45 µM
O=C(CCN1CCCC1)Nc1ccc2c(NCc3ccccc3)c3ccccc3nc2c1 | 394 nM | 1510 nM | 587 nM | 2.8 µM | 348 nM | 2.19 µM | 0.612 µM | 2.75 µM | 657 nM | 2030 nM | 377 nM | 1.59 µM | 313 nM | 1.07 µM | 11900 nM | 55 µM | 422 nM | 1.58 µM | 408 nM | 1.83 µM
